Experimental data published in paper PMC6235002, “Born to sense: biophysical analyses of the oxygen sensing prolyl hydroxylase from the simplest animal Trichoplax adhaerens” (Hypoxia, 2018).
Entries after “also recorded” stand apart in the source; their conditions may differ. Where two headings read alike, the source gives them in different places.

What was measured:
TaPHD^64-300 [1] = biological target: T1, TaPHD^64-300 (Trichoplax adhaerens, UniProt I6QVT6); assay: Steady-state O2-dependence of TaPHD (MALDI-TOF-MS); type: biochemical; conditions: TaPHD^64-300 with TaODD 25mer
Experimental: (§1) Notes: (A) Sequence alignment of TaHIFa, HsHIFa, and substrates of PHD-like enzymes in Dictyostelium discoideum (DdSkp1) and Pseudomonas putida (PpEF-Tu). […] Peptide hydroxylation was analyzed by MALDI-MS; the apparent non-enzymatic Met oxidation was subtracted. Data were fitted with the Michaelis-Menten equation using GraphPad Prism® (errors are indicated as standard deviations, n=3).
In order for the PHDs to act as hypoxia sensors in cells, their activity must be limited by oxygen availability. […] In order to study the O2 dependence of the TaPHD-catalyzed reaction, steady-state kinetics, using reported experimental conditions for HsPHD2;[29] were conducted. TaPHD^64-300 was reacted with its peptidic substrate in sealed glass-vials under varied oxygen concentrations,[29] the initial rates of TaODD 25mer hydroxylation were determined by MALDI–TOF-MS (Figure 2F and G).

HsPHD2 = conditions: read-out: Km (O2); cited from earlier work
TaPHD^64-300 [2] = biological target: T1, TaPHD^64-300; conditions: relative to TaODD 25mer and CODD 19mer; cited from earlier work
Excerpt: The HIF system in T. adhaerens is apparently markedly simpler than in humans because it contains only one PHD (TaPHD), and one HIFα isoform with a single ODD (TaODD, Figure 1A).[16] […] To further investigate the substrate preferences of TaPHD^64–300, its affini ...

TaPHD^64-300 [3] = biological target: T1, TaPHD^64-300; assay: MALDI-TOF-MS peptide hydroxylation steady-state kinetics, TaPHD^64-300; type: biochemical; conditions: for Km / kcat (peptide substrate): peptide varied, 3.5–7.0 µM enzyme, 50 µM (NH4)2Fe(II)(SO4)2, 4 mM ascorbate, 300 µM 2OG; for Km: 50 mM Tris pH 7.5, Michaelis-Menten fit, ± SD, n=3, read-out: Km (peptide substrate); for kcat (peptide substrate): 50 mM Tris pH 7.5, ± SD, n=3
Experimental: as §1

HsPHD2 R396T = HsPHD2 R396T variant; Figure S4, reference not given; cited from earlier work
Excerpt: (§2) In both the TaPHD.TaODD and HsPHD2.CODD[34] structures, a salt-bridge between an arginine residue in the C-terminal α4-helix and an aspartate residue in the C-terminus of the respective peptide (R292TaPHD/D494TaODD, R396HsPHD2/D571HsHIF1α CODD) is formed (Figure S4). However, this salt-bridge is not present in the HsPHD2.NODD complex structure, where the HsHIF1α NODD peptide is positioned further from the C-terminal helix and interacts with the C-terminal region of HsPHD2 via hydrophobic contacts. Studies with the TaODD and HsPHD2 variants, including with HsPHD2 P317RHsPHD2 and R396THsPHD2, wh ...

TaPHD^64-300 [4] = biological target: T1, TaPHD^64-300; conditions: TaPHD with natural substrate (500 µM); 20 µM enzyme, 125 µM Fe(II), 1 mM ascorbate, 400 µM 2OG, 50 mM Tris-D11 pH 7.5; ^1H NMR
HsPHD2^181-426 [5] = biological target: T2, HsPHD2^181-426 (Homo sapiens, UniProt Q9GZT9); assay: MALDI-TOF-MS peptide hydroxylation steady-state kinetics, HsPHD2^181-426; type: biochemical; conditions: peptide varied, 3.5–7.0 µM enzyme, 50 µM (NH4)2Fe(II)(SO4)2, 4 mM ascorbate, 300 µM 2OG; for Km: 50 mM Tris pH 7.5, Michaelis-Menten fit, ± SD, n=3, read-out: Km (peptide substrate); for kcat (peptide substrate): 50 mM Tris pH 7.5, ± SD, n=3
T2 construct: compared to the truncated human PHD isoform 2 (HsPHD2^181-426)
Experimental: as §1

HsPHD2^181-426 [6] = biological target: T2, HsPHD2^181-426; set-up: method as in PMID 25120187; conditions: previous studies, read-out: Km (peptide substrate), previous studies; cited from earlier work
HsPHD2 P317R = HsPHD2 P317R variant; Figure S4, reference not given; cited from earlier work
Excerpt: as §2

TaPHD^64-300 [7] = biological target: T1, TaPHD^64-300; assay: 1D CLIP HSQC NMR binding studies with [^13C]-prolyl-labelled reporter ODD peptides; conditions: 1:1 enzyme:ODD, 50 µM [^13C]-proline-labelled peptide, 50 µM TaPHD, Zn(II), 50 µM 2OG, 50 mM Tris-D11 pH 7.5, 10% D2O/90% H2O, n=3
Experimental: as §1
To more directly investigate the extent to which TaPHD^64-300 can bind HsHIF1α NODD and CODD, we performed 1D CLIP HSQC NMR binding studies with HsHIF1α CODD and HsHIF1α NODD peptides labeled with [^13C] at the target prolyl residues which undergo hydroxylation during catalysis (Figure 2C).

[8] = substrate: O=C(O)CCC(=O)C(=O)O; assay: MALDI-TOF-MS peptide hydroxylation steady-state kinetics, TaPHD^64-300; type: biochemical, Trichoplax adhaerens; conditions: other: TaPHD^64-300, 2OG varied, 100 µM peptide, 50 µM (NH4)2Fe(II)(SO4)2, 4 mM ascorbate, 50 mM Tris pH 7.5, ± SD, n=3, 37.0 °C

T2 sequence (Q9GZT9 181-426): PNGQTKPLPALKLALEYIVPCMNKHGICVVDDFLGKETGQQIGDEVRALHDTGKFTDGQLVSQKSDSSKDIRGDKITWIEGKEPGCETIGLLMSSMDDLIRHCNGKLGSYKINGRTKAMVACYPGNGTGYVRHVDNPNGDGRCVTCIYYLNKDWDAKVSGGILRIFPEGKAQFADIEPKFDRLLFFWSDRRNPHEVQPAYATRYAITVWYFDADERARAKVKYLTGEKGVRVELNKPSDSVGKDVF

Molecule: O=O [O2, oxygen]
- Km (TaPHD^64-300 [1]; 4 µM enzyme, 100 µM TaODD, 50 µM Fe(II), 300 µM 2OG, 4 mM ascorbate, 50 mM Tris pH 7.5, 37°C, varied % O2, n=3): > 400 µM
- O2 saturation (in words) (TaPHD^64-300 [1]; at 60% O2 level, 37°C, pH 7.5): No saturation of O2 was reached
- Km (HsPHD2): > 400 µM

Molecule: DALTLLAPAAGDTIISLDF-NH2 [HsHIF1α NODD 19mer, 19mer peptide of the human HIF1α N-terminal ODD]
- hydroxylation by TaPHD, earlier report (in words) (TaPHD^64-300 [2]): hydroxylated less efficiently
- hydroxylation by TaPHD (in words) (TaPHD^64-300 [3]): not turned over above background level
- ODD selectivity of HsPHD2 R396T (in words) (HsPHD2 R396T): NODD

Molecule: O=C(O)CCC(=O)C(=O)O [2OG, 2-oxoglutarate]
- 2OG decarboxylation in presence of substrate (TaPHD^64-300 [4]): strongly increased in presence of substrate

Molecule: PINEKEDYDDLAPFVPPPSFDNRLY-NH2 [TaODD 25mer, 25mer peptide of the single ODD of T. adhaerens HIFα, natural substrate of TaPHD]
- hydroxylation by TaPHD (in words) (TaPHD^64-300 [3]): efficiently catalyzes the hydroxylation
- Km (TaPHD^64-300 [3]): 11.5 ± 1.8 µM
- kcat (peptide substrate) (TaPHD^64-300 [3]): 0.026 ± 0.001 s⁻¹
- Km (HsPHD2^181-426 [5]): 40.5 ± 4.9 µM
- kcat (peptide substrate) (HsPHD2^181-426 [5]): 0.035 ± 0.002 s⁻¹

Molecule: DLDLEMLAPYIPMDDDFQL-NH2 [HsHIF1α CODD 19mer, 19mer peptide of the human HIF1α C-terminal ODD]
- Km (HsPHD2^181-426 [6]): 9 ± 3 µM
- hydroxylation by TaPHD (in words) (TaPHD^64-300 [3]): efficiently catalyzes the hydroxylation
- Km (TaPHD^64-300 [3]): 15.1 ± 2.2 µM
- kcat (peptide substrate) (TaPHD^64-300 [3]): 0.012 ± 0.001 s⁻¹
- Km (HsPHD2^181-426 [5]): 10.8 ± 1.9 µM
- kcat (peptide substrate) (HsPHD2^181-426 [5]): 0.027 ± 0.001 s⁻¹
- ODD selectivity of HsPHD2 P317R (in words) (HsPHD2 P317R): selective for CODD
- binding to TaPHD (in words) (TaPHD^64-300 [7]): higher binding affinity of TaPHD for HsHIF1α CODD over NODD; also recorded: apparently completely bound

B1: TaPHD^64-300 (Trichoplax adhaerens) (protein)
chain: MDERRPKIGCDKTGLALEKTWQLQKNERLSNMVVNQLNTNGFCIINNFLGSSCSTEVLQQVLNLYQSGVFSNGQLARNVSVNRIRGDKIAWIGGDERGCEAIKYLSSCVDSLISRCNGRLGNYMITGRTKCMVACYPGSGLGYIRHIDNPNRDGRCVTVLYYLNPNWNSQDCGGQLWLYPNNENKVVKIDPIFDRLLLFWSDRRNPHEVKPAYAMRYAITLWYFDEKERALSSQNGT
- Km [8]: 1.9 ± 0.3 µM
